Laboratory results: ChEMBL document CHEMBL5653631, “A Potent and Selective ULK1 Inhibitor Suppresses Autophagy and Sensitizes Cancer Cells to Nutrient Stress” (iScience, 2018)

Tests used:
[1] = target: T1, Tyrosine-protein kinase receptor TYRO3 (Homo sapiens) (UniProt Q06418); experiment: Inhibition of human recombinant TYRO3 at 500 nM in presence of ATP by radiometric assay relative to control
T1 sequence (whole entry): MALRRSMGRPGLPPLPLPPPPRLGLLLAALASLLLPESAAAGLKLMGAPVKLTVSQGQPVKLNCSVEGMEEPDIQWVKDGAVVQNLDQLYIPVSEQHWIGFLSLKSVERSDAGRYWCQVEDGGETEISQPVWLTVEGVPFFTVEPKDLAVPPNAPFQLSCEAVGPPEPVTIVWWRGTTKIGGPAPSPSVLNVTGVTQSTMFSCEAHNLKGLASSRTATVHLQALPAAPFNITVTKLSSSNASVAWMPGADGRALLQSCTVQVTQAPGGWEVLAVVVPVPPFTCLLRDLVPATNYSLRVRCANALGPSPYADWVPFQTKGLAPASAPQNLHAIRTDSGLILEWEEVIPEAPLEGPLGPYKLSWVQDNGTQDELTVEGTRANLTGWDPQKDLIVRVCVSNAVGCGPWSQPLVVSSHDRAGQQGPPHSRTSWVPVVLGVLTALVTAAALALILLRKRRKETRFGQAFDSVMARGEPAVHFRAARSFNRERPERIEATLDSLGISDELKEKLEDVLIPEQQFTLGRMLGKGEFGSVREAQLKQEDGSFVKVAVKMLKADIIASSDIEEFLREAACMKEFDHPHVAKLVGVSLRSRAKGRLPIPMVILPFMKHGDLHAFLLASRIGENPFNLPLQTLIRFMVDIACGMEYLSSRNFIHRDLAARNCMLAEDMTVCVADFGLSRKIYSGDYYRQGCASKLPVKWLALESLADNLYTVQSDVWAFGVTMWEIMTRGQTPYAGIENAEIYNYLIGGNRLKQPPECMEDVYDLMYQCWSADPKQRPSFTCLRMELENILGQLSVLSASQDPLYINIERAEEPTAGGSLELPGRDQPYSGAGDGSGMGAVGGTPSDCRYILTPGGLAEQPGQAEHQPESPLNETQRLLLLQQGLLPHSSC

[2] = target: T2, Ephrin type-A receptor 3 (Homo sapiens) (UniProt P29320); experiment: Inhibition of human recombinant EphA3 at 500 nM related to control ULK1
T2 sequence (whole entry): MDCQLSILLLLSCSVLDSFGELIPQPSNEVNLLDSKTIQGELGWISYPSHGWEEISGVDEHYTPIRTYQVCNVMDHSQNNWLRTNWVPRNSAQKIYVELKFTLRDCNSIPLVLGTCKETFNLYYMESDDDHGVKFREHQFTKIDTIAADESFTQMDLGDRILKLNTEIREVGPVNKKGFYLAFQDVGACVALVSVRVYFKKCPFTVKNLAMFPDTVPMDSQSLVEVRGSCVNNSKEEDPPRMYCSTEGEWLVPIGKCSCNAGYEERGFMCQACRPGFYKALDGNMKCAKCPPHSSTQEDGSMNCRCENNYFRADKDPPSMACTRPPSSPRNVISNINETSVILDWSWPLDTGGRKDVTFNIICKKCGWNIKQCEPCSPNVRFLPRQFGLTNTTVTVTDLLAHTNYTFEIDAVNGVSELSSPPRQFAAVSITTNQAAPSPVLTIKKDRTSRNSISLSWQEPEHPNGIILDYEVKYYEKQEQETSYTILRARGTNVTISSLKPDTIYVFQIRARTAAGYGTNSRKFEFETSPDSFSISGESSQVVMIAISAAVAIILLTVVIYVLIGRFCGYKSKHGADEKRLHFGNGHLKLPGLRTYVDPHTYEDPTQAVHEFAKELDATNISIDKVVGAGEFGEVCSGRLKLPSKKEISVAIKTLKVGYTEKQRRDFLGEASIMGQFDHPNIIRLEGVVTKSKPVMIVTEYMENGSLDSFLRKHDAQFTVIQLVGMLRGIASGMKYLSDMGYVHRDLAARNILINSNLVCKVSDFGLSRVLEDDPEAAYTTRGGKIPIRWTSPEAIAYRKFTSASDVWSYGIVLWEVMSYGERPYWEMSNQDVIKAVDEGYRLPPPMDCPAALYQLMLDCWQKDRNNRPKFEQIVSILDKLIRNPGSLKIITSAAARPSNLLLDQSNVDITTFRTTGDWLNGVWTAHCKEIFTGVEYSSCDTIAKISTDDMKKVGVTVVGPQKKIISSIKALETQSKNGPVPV

[3] = target: Serine/threonine-protein kinase 4 (Homo sapiens) (UniProt Q13043); experiment: Inhibition of human recombinant MST1 at 15 nM related to control ULK1
[4] = target: T3, Serine/threonine-protein kinase Chk1 (Homo sapiens) (UniProt O14757); experiment: Inhibition of human recombinant CHK1 at 15 nM related to control ULK1
T3 sequence (whole entry): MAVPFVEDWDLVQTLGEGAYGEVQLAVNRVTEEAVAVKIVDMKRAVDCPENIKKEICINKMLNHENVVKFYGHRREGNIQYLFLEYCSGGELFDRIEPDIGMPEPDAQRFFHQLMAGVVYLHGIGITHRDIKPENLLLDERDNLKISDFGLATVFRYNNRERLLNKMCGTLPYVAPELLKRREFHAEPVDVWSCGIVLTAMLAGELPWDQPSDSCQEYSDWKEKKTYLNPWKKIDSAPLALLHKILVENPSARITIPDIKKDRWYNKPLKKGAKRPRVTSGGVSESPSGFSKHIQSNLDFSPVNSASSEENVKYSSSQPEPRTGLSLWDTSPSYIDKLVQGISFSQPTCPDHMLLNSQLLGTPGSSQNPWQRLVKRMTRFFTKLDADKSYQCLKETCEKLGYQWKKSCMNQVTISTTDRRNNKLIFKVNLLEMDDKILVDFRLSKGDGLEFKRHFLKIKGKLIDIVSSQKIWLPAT

[5] = target: Myosin light chain kinase, smooth muscle (Homo sapiens) (UniProt Q15746); experiment: Inhibition of human recombinant smMLCK at 15 nM in presence of ATP by radiometric assay relative to control
Chain of Myosin light chain kinase, smooth muscle (Homo sapiens) (Q15746 whole entry): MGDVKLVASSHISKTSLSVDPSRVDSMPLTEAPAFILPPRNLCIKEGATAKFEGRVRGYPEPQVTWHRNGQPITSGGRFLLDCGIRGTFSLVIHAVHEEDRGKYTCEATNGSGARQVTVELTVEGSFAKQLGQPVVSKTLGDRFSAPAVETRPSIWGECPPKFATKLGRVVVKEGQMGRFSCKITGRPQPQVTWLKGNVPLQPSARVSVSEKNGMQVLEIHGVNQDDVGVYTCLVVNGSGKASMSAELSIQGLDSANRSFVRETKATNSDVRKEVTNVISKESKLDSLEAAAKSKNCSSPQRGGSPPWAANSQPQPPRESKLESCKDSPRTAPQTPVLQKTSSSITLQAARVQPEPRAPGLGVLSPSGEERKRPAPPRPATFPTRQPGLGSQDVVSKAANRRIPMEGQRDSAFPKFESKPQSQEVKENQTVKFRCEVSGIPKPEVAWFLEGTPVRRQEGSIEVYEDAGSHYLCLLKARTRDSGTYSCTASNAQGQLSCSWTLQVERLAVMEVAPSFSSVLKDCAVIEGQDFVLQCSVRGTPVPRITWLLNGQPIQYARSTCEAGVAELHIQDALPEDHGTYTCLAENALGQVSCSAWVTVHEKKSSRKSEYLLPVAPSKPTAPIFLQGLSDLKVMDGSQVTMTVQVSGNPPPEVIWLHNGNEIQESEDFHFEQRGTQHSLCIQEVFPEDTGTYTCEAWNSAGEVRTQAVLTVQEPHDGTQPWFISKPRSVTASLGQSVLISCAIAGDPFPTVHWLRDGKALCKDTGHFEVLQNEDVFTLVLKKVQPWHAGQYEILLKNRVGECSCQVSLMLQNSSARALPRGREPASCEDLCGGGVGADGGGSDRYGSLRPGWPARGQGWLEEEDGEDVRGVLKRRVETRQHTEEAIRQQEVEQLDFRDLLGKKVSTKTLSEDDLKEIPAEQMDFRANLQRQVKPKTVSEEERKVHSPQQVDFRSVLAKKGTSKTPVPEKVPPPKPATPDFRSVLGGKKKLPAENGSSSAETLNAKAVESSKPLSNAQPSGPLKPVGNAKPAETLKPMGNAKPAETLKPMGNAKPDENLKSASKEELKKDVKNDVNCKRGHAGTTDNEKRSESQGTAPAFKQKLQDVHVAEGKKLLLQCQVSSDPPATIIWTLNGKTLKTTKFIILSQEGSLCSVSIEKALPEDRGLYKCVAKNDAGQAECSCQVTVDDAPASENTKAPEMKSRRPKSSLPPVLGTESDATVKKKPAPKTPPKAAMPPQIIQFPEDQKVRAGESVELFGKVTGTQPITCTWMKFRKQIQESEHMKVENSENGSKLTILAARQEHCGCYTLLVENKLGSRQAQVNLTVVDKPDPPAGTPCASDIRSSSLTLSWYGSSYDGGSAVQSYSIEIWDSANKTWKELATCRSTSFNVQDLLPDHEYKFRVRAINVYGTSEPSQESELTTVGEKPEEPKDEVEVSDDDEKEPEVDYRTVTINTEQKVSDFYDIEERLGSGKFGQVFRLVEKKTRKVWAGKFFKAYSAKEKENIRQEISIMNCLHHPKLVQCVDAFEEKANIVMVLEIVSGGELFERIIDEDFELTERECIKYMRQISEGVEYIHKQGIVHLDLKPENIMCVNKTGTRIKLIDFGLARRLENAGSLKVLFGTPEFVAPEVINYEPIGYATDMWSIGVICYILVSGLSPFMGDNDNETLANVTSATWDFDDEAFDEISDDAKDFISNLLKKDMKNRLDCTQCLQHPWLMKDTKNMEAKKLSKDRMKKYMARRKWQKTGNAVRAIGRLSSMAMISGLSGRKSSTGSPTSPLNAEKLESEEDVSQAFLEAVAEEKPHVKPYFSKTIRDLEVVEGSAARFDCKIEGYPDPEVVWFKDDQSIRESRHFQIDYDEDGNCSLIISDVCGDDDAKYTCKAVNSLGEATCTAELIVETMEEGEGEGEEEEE

Chain of Serine/threonine-protein kinase 4 (Homo sapiens) (Q13043 whole entry, looked up): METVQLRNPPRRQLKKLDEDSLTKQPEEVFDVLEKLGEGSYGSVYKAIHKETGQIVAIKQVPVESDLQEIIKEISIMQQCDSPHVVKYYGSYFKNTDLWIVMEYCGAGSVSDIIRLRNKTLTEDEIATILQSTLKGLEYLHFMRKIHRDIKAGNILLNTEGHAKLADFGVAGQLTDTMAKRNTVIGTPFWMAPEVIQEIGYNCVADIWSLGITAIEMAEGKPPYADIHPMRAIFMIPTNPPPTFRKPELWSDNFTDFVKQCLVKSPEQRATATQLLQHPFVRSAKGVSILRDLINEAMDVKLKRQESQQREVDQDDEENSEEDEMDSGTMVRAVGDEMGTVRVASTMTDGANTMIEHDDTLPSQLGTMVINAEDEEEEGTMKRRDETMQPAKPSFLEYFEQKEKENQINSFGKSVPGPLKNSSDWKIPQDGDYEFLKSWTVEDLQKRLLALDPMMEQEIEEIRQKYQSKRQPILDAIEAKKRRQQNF

inhibition [1] [%]	fold change (FC) [2]	fold change (FC) [3]	fold change (FC) [4]	inhibition [5] [%]	SMILES
10	0.15				CNC(=O)c1ccccc1Oc1nc(Nc2cc(OC)c(OC)c(OC)c2)ncc1Br
		0.03	0	0	CC(C)[C@H](NC(=O)c1cc(-c2cnn3cc(-c4ccc(OCCN5CCCCC5)cc4)cnc23)cs1)C(F)(F)F
